Article doi:10.1101/2021.09.30.462449v1 (biorxiv, 2021)

Assays:
Assay in all cases: biochemical
Settings in all cases: read-out: % inhibition mean (Lanthascreen)
[1] = molecular target: RIPK2 (Homo sapiens, UniProt O43353)
[2] = molecular target: ALK C1156Y (Homo sapiens, UniProt Q9UM73, C1156Y)
[3] = molecular target: TAOK1 (Homo sapiens, UniProt Q7L7X3)
[4] = molecular target: MAPK8 (JNK1) (Homo sapiens, UniProt P45983)
[5] = molecular target: TESK1 (Homo sapiens, UniProt Q15569)
[6] = molecular target: CDC7/DBF4 (Homo sapiens, UniProt O00311)
[7] = molecular target: AAK1 (Homo sapiens, UniProt Q2M2I8)
[8] = molecular target: PKMYT1 (Homo sapiens, UniProt Q99640)
[9] = molecular target: ICK (Homo sapiens, UniProt Q9UPZ9)
[10] = molecular target: MAP2K1 (MEK1) (Homo sapiens, UniProt Q02750)
[11] = molecular target: DDR2 T654M (Homo sapiens, UniProt Q16832, T654M)
[12] = molecular target: STK39 (STLK3) (Homo sapiens, UniProt Q9UEW8)
[13] = molecular target: ZAK (Homo sapiens, UniProt Q9NYL2)
[14] = molecular target: KIT Y823D (Homo sapiens, UniProt P10721, Y823D)
[15] = molecular target: ACVR2A (Homo sapiens, UniProt P27037)
[16] = molecular target: MAP3K10 (MLK2) (Homo sapiens, UniProt Q02779)
[17] = molecular target: MAPK9 (JNK2) (Homo sapiens, UniProt P45984)
[18] = molecular target: ABL1 H396P (Homo sapiens, UniProt P00519, H396P)
[19] = molecular target: ACVR1 (ALK2) R206H (Homo sapiens, UniProt Q04771, R206H)
[20] = molecular target: MAP4K3 (GLK) (Homo sapiens, UniProt Q8IVH8)
[21] = molecular target: BMPR1A (ALK3) (Homo sapiens, UniProt P36894)
[22] = molecular target: AMPK (A2/B2/G2) (Homo sapiens, UniProt P54646)
[23] = molecular target: BMPR2 (Homo sapiens, UniProt Q13873)
[24] = molecular target: AMPK (A2/B2/G1) (Homo sapiens, UniProt P54646)
[25] = molecular target: MET D1228H (Homo sapiens, UniProt P08581, D1228H)
[26] = molecular target: SIK3 (Homo sapiens, UniProt Q9Y2K2)
[27] = molecular target: FYN A (Homo sapiens, UniProt P06241)
[28] = molecular target: GAK (Homo sapiens, UniProt O14976)
[29] = molecular target: STK16 (PKL12) (Homo sapiens, UniProt O75716)

Sequence of ALK C1156Y (Q9UM73 whole entry C1156Y): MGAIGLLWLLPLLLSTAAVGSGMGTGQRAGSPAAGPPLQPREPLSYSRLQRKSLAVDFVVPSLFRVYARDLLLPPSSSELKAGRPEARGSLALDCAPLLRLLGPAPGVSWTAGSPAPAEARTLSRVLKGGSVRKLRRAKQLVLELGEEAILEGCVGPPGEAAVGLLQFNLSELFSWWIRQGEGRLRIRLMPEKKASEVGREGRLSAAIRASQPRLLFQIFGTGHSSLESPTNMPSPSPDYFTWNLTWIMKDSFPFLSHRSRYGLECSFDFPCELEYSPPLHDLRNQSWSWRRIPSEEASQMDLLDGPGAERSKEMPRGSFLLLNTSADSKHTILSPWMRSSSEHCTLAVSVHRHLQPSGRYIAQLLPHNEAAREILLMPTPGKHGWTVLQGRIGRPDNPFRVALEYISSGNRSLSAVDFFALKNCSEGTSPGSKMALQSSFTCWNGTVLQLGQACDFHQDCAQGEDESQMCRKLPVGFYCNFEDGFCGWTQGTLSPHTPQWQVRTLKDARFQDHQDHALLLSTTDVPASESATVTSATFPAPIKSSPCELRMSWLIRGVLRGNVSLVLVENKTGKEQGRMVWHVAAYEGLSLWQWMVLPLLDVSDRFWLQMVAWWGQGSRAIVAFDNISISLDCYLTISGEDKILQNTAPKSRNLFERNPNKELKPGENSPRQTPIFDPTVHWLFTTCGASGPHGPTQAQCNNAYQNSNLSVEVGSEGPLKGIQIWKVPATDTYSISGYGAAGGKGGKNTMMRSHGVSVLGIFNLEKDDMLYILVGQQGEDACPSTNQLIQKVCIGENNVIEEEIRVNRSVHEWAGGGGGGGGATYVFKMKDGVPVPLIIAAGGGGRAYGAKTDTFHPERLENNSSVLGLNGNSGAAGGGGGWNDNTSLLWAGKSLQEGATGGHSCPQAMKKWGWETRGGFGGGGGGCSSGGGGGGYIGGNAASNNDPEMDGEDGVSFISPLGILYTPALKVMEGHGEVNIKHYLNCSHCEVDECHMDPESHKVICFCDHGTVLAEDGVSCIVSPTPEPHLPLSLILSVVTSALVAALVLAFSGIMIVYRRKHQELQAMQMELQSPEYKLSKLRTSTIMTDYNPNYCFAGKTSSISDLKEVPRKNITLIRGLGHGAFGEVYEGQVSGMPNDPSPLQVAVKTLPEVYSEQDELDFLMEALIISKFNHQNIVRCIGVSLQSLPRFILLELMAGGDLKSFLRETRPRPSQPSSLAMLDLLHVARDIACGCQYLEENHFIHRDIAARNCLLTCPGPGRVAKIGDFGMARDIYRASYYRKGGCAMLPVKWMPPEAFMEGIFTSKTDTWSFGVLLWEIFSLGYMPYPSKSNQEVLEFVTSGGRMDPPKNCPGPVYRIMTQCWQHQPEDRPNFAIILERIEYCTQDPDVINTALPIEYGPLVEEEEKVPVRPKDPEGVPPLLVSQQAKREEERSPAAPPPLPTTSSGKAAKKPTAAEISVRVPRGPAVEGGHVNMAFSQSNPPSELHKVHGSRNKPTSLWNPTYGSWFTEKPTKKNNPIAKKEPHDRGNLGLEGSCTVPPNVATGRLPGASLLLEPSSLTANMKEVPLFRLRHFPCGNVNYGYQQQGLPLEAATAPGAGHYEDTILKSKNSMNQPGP
Sequence of DDR2 T654M (Q16832 whole entry T654M): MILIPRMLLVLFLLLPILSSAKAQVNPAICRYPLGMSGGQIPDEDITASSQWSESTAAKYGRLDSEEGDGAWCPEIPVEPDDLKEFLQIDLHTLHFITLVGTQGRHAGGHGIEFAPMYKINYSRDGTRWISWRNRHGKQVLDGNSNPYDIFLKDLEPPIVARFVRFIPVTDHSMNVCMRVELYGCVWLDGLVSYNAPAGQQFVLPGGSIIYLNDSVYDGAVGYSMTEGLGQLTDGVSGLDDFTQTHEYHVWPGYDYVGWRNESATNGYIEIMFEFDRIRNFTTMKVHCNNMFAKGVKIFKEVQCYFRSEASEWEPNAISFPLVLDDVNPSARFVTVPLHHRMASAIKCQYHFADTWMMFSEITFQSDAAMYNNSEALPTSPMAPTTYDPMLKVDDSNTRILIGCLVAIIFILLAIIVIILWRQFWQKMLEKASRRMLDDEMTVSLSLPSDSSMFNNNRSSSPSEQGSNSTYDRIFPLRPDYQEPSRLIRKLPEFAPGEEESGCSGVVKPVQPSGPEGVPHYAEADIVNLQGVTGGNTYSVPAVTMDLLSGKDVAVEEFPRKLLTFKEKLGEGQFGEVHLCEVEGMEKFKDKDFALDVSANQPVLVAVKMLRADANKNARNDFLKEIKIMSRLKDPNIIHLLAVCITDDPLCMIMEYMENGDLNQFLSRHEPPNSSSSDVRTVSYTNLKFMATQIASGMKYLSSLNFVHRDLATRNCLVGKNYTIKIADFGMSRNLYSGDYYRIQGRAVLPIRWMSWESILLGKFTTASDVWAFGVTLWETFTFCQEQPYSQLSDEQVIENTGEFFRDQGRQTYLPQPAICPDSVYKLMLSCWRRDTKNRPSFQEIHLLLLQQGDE
Sequence of BMPR2 (Q13873 whole entry): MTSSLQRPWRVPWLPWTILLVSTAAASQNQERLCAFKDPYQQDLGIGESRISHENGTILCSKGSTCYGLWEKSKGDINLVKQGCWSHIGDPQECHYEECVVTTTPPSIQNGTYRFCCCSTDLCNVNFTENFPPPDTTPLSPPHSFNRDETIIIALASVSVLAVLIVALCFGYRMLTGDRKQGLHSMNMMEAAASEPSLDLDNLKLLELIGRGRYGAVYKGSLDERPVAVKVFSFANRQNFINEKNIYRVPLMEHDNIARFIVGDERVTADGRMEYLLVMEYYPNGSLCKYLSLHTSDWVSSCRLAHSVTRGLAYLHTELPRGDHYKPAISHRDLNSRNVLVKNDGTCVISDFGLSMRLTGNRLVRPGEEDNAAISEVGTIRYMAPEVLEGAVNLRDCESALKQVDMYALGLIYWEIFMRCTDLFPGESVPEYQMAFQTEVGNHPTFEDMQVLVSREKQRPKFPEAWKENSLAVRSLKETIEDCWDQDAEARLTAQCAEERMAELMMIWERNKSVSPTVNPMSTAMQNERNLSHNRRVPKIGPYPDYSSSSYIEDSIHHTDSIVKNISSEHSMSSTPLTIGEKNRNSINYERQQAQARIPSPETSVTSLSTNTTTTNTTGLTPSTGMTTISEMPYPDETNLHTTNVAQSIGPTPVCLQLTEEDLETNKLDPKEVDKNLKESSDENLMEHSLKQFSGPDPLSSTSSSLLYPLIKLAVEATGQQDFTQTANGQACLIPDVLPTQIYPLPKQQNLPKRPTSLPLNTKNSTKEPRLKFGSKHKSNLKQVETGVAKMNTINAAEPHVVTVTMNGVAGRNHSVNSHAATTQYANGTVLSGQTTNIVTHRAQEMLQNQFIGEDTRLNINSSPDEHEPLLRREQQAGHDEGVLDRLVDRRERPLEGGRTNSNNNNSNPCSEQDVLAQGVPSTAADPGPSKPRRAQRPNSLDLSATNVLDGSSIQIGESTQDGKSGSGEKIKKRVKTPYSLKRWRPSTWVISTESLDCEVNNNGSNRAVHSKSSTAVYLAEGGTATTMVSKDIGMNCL
Sequence of MET D1228H (P08581 whole entry D1228H): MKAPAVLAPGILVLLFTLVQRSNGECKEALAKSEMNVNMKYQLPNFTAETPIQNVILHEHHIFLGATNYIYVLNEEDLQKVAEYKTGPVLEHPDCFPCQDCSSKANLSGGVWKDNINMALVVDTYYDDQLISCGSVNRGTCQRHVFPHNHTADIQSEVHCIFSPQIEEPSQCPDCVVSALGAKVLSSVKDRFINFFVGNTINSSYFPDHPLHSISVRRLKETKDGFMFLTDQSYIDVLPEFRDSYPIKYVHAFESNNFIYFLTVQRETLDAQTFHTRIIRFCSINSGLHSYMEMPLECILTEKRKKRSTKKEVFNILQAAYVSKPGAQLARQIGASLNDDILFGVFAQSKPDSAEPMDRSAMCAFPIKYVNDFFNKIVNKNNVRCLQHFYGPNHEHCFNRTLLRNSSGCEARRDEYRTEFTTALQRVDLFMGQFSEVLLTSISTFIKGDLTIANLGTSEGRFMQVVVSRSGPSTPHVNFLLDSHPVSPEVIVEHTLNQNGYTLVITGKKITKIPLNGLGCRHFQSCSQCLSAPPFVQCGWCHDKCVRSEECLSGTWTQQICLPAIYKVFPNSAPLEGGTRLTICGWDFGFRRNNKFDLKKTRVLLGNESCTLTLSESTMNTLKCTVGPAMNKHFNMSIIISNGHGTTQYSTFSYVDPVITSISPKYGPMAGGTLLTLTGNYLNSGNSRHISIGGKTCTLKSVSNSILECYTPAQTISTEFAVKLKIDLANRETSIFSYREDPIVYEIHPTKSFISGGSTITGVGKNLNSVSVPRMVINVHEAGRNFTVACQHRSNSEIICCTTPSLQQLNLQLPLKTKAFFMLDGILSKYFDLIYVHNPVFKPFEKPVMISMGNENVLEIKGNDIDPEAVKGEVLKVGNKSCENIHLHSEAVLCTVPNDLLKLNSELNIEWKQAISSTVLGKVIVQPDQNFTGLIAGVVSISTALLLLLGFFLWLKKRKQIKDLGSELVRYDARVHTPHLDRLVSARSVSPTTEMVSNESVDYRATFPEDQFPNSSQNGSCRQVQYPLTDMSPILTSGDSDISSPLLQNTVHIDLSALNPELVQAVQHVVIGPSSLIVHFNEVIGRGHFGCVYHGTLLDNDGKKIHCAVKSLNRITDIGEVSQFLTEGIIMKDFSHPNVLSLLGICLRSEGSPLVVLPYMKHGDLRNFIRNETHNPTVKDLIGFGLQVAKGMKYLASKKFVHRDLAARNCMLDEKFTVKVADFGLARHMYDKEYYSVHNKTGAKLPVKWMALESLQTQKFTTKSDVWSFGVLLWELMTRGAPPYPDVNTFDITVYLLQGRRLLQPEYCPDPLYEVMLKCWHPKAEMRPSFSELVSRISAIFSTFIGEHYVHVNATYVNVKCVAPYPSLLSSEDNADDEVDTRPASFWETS

COc1ccc2nc3cc(Cl)ccc3c(Nc3cc(CN4CCCC4)c(O)c(CN4CCCC4)c3)c2n1 [Pyronaridine, 4-[(7-Chloro-2-methoxybenzo[b][1,5]naphthyridin-10-yl)amino]-2,6-bis(1-pyrrolidinylmethyl)phenol phosphate (1:4)]
inhibition at 1 µM [1]: 1%
inhibition at 1 µM [2]: -2%
inhibition at 1 µM [3]: -4%
inhibition at 1 µM [4]: 3%
inhibition at 1 µM [5]: -2%
inhibition at 1 µM [6]: -6%
inhibition at 1 µM [7]: 0%
inhibition at 1 µM [8]: 1%
inhibition at 1 µM [9]: 0%
inhibition at 1 µM [10]: 1%
inhibition at 1 µM [11]: -11%
inhibition at 1 µM [12]: -19%
inhibition at 1 µM [13]: 0%
inhibition at 1 µM [14]: -4%
inhibition at 1 µM [15]: -6%
inhibition at 1 µM [16]: 0%
inhibition at 1 µM [17]: 6%
inhibition at 1 µM [18]: 7%
inhibition at 1 µM [19]: 2%
inhibition at 1 µM [20]: 1%
inhibition at 1 µM [21]: 10%
inhibition at 1 µM [22]: 3%
inhibition at 1 µM [23]: 8%
inhibition at 1 µM [24]: 6%
inhibition at 1 µM [25]: 3%
inhibition at 1 µM [26]: -2%
inhibition at 1 µM [27]: -3%
inhibition at 1 µM [28]: 28%
inhibition at 1 µM [29]: 5%
